For test [1], the system named is NLK. The experiment in a line: Kinobeads competition binding: NLK.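 Note: selectivity score: engagement of this protein divided by summed engagement of all targets.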 The arrangement: species or system human. Conditions: target NLK.
Test [2] addresses T1, EPHA2 (Homo sapiens, UniProt P29317).
T1 construct: endogenous in cells
The experiment in a line: Kinobeads competition binding: EPHA2. Conditions: target EPHA2. The text has this: Supplement 41589_2023_1459_MOESM4_ESM.xlsx, sheet "CATDS matrix" | column: EPHA2

Test [3] deals with T2, CLK1 (Homo sapiens, UniProt P49759).
T2 construct: endogenous in cells
T2 sequence (P49759 whole entry): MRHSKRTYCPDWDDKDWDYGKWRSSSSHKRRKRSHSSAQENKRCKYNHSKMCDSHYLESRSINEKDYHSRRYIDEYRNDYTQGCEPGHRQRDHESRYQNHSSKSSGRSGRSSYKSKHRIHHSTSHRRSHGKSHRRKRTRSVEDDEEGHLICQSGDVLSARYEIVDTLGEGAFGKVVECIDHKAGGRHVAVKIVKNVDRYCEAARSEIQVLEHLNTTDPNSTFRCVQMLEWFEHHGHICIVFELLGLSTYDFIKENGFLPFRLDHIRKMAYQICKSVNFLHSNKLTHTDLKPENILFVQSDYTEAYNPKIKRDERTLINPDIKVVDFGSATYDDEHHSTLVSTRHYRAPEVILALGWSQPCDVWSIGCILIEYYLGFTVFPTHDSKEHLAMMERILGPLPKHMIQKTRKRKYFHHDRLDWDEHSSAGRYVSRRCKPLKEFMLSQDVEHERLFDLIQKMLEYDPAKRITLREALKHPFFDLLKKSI
Kind of test: Kinobeads competition binding: CLK1. As to conditions: target CLK1.

Test [4] deals with MAP2K4. The experiment in a line: Kinobeads competition binding: MAP2K4. Also on record: species or system human. Conditions: target MAP2K4.
In test [5] the test system is MAPK3. Kind of test: Kinobeads competition binding: MAPK3. Also on record: species or system human. Conditions: target MAPK3.
For test [6], the target named is T3, AURKB (Homo sapiens, UniProt Q96GD4).
T3 construct: endogenous in cells
T3 sequence (Q96GD4 whole entry): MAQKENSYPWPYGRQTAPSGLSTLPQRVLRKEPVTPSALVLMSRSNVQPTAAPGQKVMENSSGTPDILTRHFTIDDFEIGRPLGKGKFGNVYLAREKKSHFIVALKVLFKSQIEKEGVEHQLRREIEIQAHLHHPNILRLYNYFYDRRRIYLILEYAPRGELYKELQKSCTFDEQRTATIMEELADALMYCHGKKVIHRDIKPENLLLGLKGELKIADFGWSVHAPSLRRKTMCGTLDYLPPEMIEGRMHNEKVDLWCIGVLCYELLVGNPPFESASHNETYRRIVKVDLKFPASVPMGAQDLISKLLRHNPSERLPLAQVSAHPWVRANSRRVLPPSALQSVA
The experiment in a line: Kinobeads competition binding: AURKB. As to conditions: target AURKB.

In test [7] the test system is MST1R. The experiment in a line: Kinobeads competition binding: MST1R.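 Note: selectivity score: engagement of this protein divided by summed engagement of all targets.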 The arrangement: species or system human. As to conditions: target MST1R.
In test [8] the target is T4, CIT (Homo sapiens, UniProt O14578).
T4 construct: endogenous in cells
The experiment in a line: Kinobeads competition binding: CIT. As to conditions: target CIT. The text has this:
Supplement 41589_2023_1459_MOESM4_ESM.xlsx, sheet "CATDS matrix" | column: CIT

Test [9] has as its target T5, AKT2 (Homo sapiens, UniProt P31751).
T5 construct: endogenous in cells
The experiment in a line: Kinobeads competition binding: AKT2. Conditions: target AKT2.

The target in test [10] is T6, CDC7 (Homo sapiens, UniProt O00311).
T6 construct: endogenous in cells
T6 sequence (O00311 whole entry): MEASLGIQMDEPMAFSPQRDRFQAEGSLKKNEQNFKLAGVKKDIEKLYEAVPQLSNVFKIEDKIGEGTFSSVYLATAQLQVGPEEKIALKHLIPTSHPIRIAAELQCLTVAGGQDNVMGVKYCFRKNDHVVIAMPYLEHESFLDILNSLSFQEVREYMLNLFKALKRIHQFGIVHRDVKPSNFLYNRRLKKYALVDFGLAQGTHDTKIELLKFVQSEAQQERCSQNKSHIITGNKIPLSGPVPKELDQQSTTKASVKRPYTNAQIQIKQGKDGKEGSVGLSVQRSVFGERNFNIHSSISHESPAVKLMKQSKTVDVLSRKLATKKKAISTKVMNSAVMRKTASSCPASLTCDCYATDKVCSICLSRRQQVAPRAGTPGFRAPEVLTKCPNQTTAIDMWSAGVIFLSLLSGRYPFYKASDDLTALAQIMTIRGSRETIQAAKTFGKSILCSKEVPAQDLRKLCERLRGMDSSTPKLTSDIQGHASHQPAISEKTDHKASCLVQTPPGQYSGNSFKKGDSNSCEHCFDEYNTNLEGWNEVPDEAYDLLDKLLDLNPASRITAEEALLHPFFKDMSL
The experiment in a line: Kinobeads competition binding: CDC7. As to conditions: target CDC7.

In test [11] the test system is BMPR1A. Kind of test: Kinobeads competition binding: BMPR1A. Also on record: species or system human. As to conditions: target BMPR1A.
For test [12], the system named is IGF1R. Kind of test: Kinobeads competition binding: IGF1R.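 Note: selectivity score: engagement of this protein divided by summed engagement of all targets.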 The arrangement: species or system human. Conditions: target IGF1R.
In test [13] the target is ABL1 (Homo sapiens, UniProt P00519). The experiment in a line: Kinobeads competition binding: ABL1.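 Note: selectivity score: engagement of this protein divided by summed engagement of all targets.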 Conditions: target ABL1. The text has this:
Supplement 41589_2023_1459_MOESM4_ESM.xlsx, sheet "CATDS matrix" | column: ABL1

Test [14] has as its target T7, CDK4 (Homo sapiens, UniProt P11802).
T7 construct: endogenous in cells
Kind of test: Kinobeads competition binding: CDK4. Conditions: target CDK4. From the text:
Supplement 41589_2023_1459_MOESM4_ESM.xlsx, sheet "CATDS matrix" | column: CDK4

In test [15] the test system is phosphorylation sites in RKO cells. The experiment in a line: Drug-perturbed phosphoproteome analysis in RKO cells. Type of test: cell-based, human. As to conditions: RKO cells, 1 µM for 1 hour. From the text:
To be able to measure PKN3 activity in cells, bona fide substrates of the kinase would be needed but no such substrate has been conclusively validated yet. In search for such candidates, we compared the phosphoproteomes of RKO cells (human colorectal cancer cells expressing high PKN3 levels according to ProteomicsDB[53]) in response to the same three compounds (that only share PKN3 as a target), as well as THZ1 (a covalent inhibitor for which PKN3 is a reported off-target[51]) and in response to siRNA-mediated knockdown of PKN3 (Extended Data Fig. 9a,b). […] The respective numbers were far smaller for GSK949675A, GSK902056A (all four drugs used at 1 µM for 1 hour) or the siRNA experiment (48 h of knockdown; Fig. 5d, Extended Data Fig. 9d and Supplementary Table 5). Successful PKN3 knockdown (89 and 92% for 1 and 3 nM siRNA, respectively) was confirmed by parallel reaction monitoring (a quantitative mass spectrometry-based protein expression assay; Extended Data Fig. 10a).
For global phosphoproteomic analysis of PKN3 inhibitors, RKO cells were treated with 1 µM GSK949675A, THZ1, GSK902056A, SB-476429A or DMSO for 1 h in four biological replicates or PKN3 were knocked down as described. After treatment, cells were washed twice with PBS and lyzed by adding 300 µl of lysis buffer (40 mM Tris-HCl pH 7.6, 8 M Urea, EDTA-free protease inhibitor complete mini and phosphatase inhibitor cocktail). Lysates were sonicated (ten cycles, 30 s on, 30 s pause, at 4 °C) and subsequently cleared by centrifugation for 20 min at 21,000g at 4 °C. Protein concentration was determined by Bradford assay and 300 µg protein per condition was digested. After reduction with 10 mM DTT and alkylation of cysteine residues with 50 mM chloroacetamide, the Urea concentration was reduced to 1.5 M by adding […] of 40 mM Tris/HCl pH 7.6. Trypsin was added to a protease-to-protein ratio of 1:50 and digestion was performed over night at 37 °C and 700 r.p.m. on a thermoshaker. Samples were cooled down to room temperature and acidified to a pH < 3 with 0.5% trifluoroacetic acid (TFA) and desalted using 50 mg SepPak columns (Waters; wash solvent 0.07% TFA in deionized water; elution solvent 0.07% TFA, 50% ACN). Subsequently, samples were frozen at −80 °C and dried by vacuum centrifugation. Peptide concentrations were determined by NanoDrop 2000 spectrophotometer and peptide amounts were adjusted. Dried peptides were labeled with TMT6plex as published previously. […] Phosphopeptides were enriched using column based Fe-IMAC as described previously. Subsequently, phosphopeptides were separated into six fractions using high pH reversed-phase stage tips as described before. Samples were dried by vacuum centrifugation.
Nanoflow LC–MS/MS measurement of TMT-labeled phosphopeptides was performed using a Dionex Ultimate3000 nano HPLC coupled online to an Orbitrap Fusion Lumos Tribride (Thermo Fisher Scientific) mass spectrometer. Peptides were delivered to a trap column (75 μm × 2 cm, packed in house with 5 μm C18 resin; Reprosil-Pur AQ, Dr. Maisch) and washed for 10 min with 0.1% FA at a flow rate of 5 μl min^−1. […] MS1 spectra were recorded in the Orbitrap from 360 to 1,300 m/z at a resolution of 60,000 using an AGC target value of 4 × 10^5 charges and a maximum injection time of 20 ms. MS2 spectra were recorded in the Orbitrap at 15,000 resolution after HCD fragmentation using 35% NCE, an AGC target value of 5 × 10^4, maximum injection time of 22 ms and an isolation width of 0.7 m/z. The first mass was fixed to 100 m/z. The number of MS2 spectra was limited by a top ten method. For TMT quantification, an additional MS3 spectrum was acquired in the Orbitrap over a scan range of 100–1,000 m/z at 15,000 resolution (AGC of 1 × 10^5, maximum injection time of 50 ms). For this, fragment ions were selected by multi-notch isolation in the Quadrupole, allowing a maximum of ten notches and subsequently fragmentation by HCD at 55% NCE. Dynamic exclusion was set to 90 s. […]

T1 sequence (P29317 24-976): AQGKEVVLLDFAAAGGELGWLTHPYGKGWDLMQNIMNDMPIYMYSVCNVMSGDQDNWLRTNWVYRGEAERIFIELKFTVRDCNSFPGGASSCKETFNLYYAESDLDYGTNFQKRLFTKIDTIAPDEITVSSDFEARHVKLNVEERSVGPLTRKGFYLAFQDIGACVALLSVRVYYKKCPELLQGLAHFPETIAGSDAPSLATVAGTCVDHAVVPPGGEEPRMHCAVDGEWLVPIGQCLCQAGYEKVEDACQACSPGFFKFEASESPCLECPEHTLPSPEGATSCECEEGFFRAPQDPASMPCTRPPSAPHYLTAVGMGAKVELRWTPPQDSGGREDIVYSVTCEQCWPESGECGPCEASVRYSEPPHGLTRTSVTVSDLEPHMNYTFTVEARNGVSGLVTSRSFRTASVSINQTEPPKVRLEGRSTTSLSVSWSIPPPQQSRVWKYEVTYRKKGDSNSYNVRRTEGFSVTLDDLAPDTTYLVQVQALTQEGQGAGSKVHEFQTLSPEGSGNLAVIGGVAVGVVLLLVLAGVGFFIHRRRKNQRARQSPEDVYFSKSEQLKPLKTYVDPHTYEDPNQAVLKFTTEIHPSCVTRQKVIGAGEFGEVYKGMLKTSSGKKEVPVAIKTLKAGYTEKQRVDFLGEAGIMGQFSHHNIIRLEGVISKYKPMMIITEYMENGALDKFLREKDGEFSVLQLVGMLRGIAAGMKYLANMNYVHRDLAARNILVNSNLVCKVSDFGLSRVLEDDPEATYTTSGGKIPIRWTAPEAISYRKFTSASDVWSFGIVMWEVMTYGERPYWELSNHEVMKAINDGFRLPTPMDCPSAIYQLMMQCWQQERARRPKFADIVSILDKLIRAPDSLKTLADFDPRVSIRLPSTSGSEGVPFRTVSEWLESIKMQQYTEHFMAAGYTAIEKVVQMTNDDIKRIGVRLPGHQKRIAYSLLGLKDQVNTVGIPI
Chain of ABL1 (P00519 28-1130 limits assumed): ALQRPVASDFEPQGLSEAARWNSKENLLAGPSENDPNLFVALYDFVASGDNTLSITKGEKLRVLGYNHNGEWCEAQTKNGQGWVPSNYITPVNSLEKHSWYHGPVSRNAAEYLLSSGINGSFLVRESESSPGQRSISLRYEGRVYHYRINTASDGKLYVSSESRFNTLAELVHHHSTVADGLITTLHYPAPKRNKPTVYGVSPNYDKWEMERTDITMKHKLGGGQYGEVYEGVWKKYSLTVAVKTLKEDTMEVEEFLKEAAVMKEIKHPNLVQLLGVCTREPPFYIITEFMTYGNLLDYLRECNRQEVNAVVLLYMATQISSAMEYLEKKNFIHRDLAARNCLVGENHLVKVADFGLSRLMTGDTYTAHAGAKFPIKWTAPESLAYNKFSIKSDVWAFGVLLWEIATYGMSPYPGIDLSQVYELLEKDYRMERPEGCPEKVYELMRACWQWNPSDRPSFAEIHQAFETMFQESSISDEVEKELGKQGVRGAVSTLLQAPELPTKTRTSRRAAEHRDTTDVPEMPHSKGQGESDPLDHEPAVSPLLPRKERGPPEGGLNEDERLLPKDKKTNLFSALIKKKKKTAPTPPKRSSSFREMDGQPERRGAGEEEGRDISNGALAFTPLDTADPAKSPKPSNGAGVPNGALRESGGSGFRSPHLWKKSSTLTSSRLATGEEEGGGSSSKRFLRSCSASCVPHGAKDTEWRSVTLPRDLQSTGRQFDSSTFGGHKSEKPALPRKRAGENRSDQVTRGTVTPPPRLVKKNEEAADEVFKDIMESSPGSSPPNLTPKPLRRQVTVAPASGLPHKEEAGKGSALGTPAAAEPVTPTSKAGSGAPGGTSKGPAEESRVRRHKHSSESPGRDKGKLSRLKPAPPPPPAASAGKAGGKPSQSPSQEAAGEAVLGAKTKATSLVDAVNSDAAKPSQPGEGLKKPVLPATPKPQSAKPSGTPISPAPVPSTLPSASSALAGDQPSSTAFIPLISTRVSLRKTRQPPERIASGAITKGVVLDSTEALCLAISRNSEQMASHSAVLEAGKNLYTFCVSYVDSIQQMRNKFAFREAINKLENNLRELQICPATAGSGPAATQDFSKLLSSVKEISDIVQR
T5 sequence (P31751 whole entry): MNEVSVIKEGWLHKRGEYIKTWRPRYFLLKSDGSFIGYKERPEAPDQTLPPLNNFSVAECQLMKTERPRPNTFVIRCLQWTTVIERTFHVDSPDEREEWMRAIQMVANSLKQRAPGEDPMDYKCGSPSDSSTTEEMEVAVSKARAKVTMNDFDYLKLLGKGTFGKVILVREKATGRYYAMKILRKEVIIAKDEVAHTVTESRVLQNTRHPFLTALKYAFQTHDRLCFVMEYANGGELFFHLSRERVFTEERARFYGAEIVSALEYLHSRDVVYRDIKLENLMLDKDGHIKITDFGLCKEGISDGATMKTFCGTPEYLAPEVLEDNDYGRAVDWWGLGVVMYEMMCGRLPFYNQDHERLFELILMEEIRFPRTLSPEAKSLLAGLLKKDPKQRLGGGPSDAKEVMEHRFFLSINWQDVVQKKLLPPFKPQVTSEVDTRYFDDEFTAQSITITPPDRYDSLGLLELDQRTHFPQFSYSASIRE
T7 sequence (P11802 whole entry): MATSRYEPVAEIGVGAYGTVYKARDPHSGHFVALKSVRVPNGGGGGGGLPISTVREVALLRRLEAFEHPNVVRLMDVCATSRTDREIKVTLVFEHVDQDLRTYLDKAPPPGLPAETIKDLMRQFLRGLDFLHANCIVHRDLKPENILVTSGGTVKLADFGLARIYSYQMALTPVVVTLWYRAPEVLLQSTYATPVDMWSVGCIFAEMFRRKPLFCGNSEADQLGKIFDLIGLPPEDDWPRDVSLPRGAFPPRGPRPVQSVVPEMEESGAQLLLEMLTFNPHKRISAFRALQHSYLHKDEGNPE

For `Nc1ncnc2[nH]c(-c3ccccc3)nc12` [AH5015_KCGS], the CATDS in test [1], in [2], in test [3], in test [4], in test [5] and in test [6] was 0 each time. Also, the CATDS in test [7], in test [8], in test [9], in test [10], in test [11] and in test [12] was 0 each time. Moreover, the CATDS in [13] and in test [14] was 0 in each case.
Take `CCN1CCN(Cc2ccc(Nc3ncc(F)c(-c4cc(F)c5nc(C)n(C(C)C)c5c4)n3)nc2)CC1` [Abemaciclib]: the CATDS in [1], in test [2], in test [4], in test [5], in test [6] and in test [7] was 0 each time. For the same molecule, the CATDS in test [8] turned out to be 0.02291; in [9] it was 0; in test [10] it was 0; in test [11], 0; in [12] it was 0; in test [13] it was 0. The molecule also had a CATDS in [14] of 0.
For the molecule `CN(C)C/C=C/C(=O)Nc1cc2c(Nc3ccc(F)c(Cl)c3)ncnc2cc1O[C@H]1CCOC1` [Afatinib], the CATDS in test [2], in test [8], in [13] and in [14] was 0 in each case.
With `CCc1cc2c(cc1N1CCC(N3CCOCC3)CC1)C(C)(C)c1[nH]c3cc(C#N)ccc3c1C2=O` [Alectinib], the CATDS in test [1], in [2], in [3], in test [4], in test [5] and in test [6] was 0 throughout. Besides, the CATDS in test [7], in test [8], in [9], in [10], in [11] and in [12] was 0 each time. The CATDS in test [13] and in [14] was 0 throughout.
Take `N#CC1(c2ccc(NC(=O)c3cccnc3NCc3ccncc3)cc2)CCCC1` [Apatinib]: the CATDS in [1], in test [2], in [3], in test [4], in [5] and in [6] was 0 in each case. Moreover, the CATDS in test [7], in test [8], in [9], in test [10], in test [11] and in test [12] was 0 in each case. Besides, the CATDS in test [13] and in [14] was 0 each time.
With `CCn1c(-c2nonc2N)nc2c(C#CC(C)(C)O)nc(OCCN)cc21` [GSK902056A], the “number of perturbed phosphorylation sites” value (“number” for short) in test [15] was “far smaller”.
As to `CCn1c(-c2nonc2N)nc2c(C#CC(C)(C)O)nc(OCCNC)cc21` [GSK949675A], in test [15], the “number” value is recorded as “far smaller”.
For `NCc1ccc(-c2nc(-c3ccncc3)c(-c3ccc(Cl)c(O)c3)[nH]2)cc1` [SB-476429-A], in [15], the “PKN3 activation loop p sites (S544 and T550)” value was “substantial reduction”; the “number” value was “a large number of p sites”.

For the origin of these results see paper PMC11062922 (Nature Chemical Biology, 2023).
